Measured values: PubChem BioAssay (NCI)
Values joined by “and” are separate entries in the source; they are usually repeats but may differ in a detail not shown here. Equal values may be shown once.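 Compound exposure: 48 hours, 5 concentrations, 96-well plates. GI50: concentration for 50% inhibition of growth. TGI marks complete inhibition of growth.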

Key:
Test in all cases: growth of human tumour cells (NCI), 48 h
[1] = tested on: MDA-MB-435
[2] = tested on: TK-10 renal
[3] = tested on: SK-MEL-2 melanoma
[4] = tested on: A549 NSCLC
[5] = tested on: SN12C renal
[6] = tested on: SK-MEL-28 melanoma
[7] = tested on: SR leukemia
[8] = tested on: SF-268 CNS
[9] = tested on: SNB-75 CNS
[10] = tested on: A498 renal

With `N#Cc1c(NC(=O)c2ccccc2F)sc2c1CCCC2` the GI50 [1] was 1310 nM, the TGI [1] was > 12.1 µM and the GI50 [2] was > 25000 nM. For the same compound, the TGI [2] was > 25 µM, the GI50 [3] was > 25 µM and the TGI [3] was > 25 µM. The GI50 [4] was > 25000 nM, the TGI [4] was > 25 µM and the GI50 [5] was > 25000 nM. The TGI [5] was > 25 µM, the GI50 [6] was > 25 µM and the TGI [6] was > 25 µM. The GI50 [7] was > 25000 nM, the TGI [7] was > 25 µM and the GI50 [8] was > 25000 nM. For the same compound, the TGI [8] was > 25 µM, the GI50 [9] was > 21700 nM and the TGI [9] was > 25 µM. For the same compound, the GI50 [10] was > 16700 nM and the TGI [10] was > 25 µM.
With `N#CCNC(=O)c1ccc(-c2ccnc(Nc3ccc(N4CCOCC4)cc3)n2)cc1` the GI50 [1] was 4750 nM and 2820 nM, the TGI [1] was > 100 µM and the GI50 [2] was 873 nM and 607 nM. The TGI [2] was 8.31 µM and 4.58 µM, the GI50 [3] was 3.97 µM and 2.48 µM and the TGI [3] was > 10 µM and 19 µM. The GI50 [4] was 4470 nM and 1750 nM, the TGI [4] was > 10 µM and 12.4 µM and the GI50 [5] was 2730 nM and 992 nM. The TGI [5] was > 100 µM, the GI50 [6] was 4.49 µM and 2.56 µM and the TGI [6] was > 10 µM and 20.3 µM. The GI50 [7] was 498 nM and 458 nM, the TGI [7] was 3.88 µM and 5.47 µM and the GI50 [8] was 1780 nM and 1410 nM. For the same compound, the TGI [8] was > 10 µM and 17.7 µM, the GI50 [9] was 621 nM and 186 nM and the TGI [9] was 5.6 µM and 4.17 µM. The GI50 [10] was 2350 nM and 1910 nM and the TGI [10] was 8.73 µM and 7.66 µM.
In the case of `O=C(c1cc(Cc2n[nH]c(=O)c3ccccc23)ccc1F)N1CCN(C(=O)C2CC2)CC1`, the GI50 [1] is reported as 58000 nM and 97600 nM, the TGI [1] is reported as > 100 µM and the GI50 [2] is reported as > 100000 nM and 48100 nM. For the same compound, the TGI [2] was > 100 µM, the GI50 [3] was > 100 µM and the TGI [3] was > 100 µM. The GI50 [4] was > 100000 nM, the TGI [4] was > 100 µM and the GI50 [5] was > 100000 nM. For the same compound, the TGI [5] was > 100 µM, the GI50 [6] was > 100 µM and the TGI [6] was > 100 µM. For the same compound, the GI50 [7] was 7780 nM and 14100 nM, the TGI [7] was > 100 µM and the GI50 [8] was 53200 nM and 59600 nM. The TGI [8] was > 100 µM, the GI50 [9] was 14900 nM and 18000 nM and the TGI [9] was > 100 µM. For the same compound, the GI50 [10] was 19000 nM and > 55700 nM and the TGI [10] was > 100 µM.
`Nc1nc(-c2ccc(Cl)cc2)nc2c1sc(=S)n2-c1ccccc1` was tested, and the GI50 [1] was 6650 nM, the TGI [1] was > 100 µM and the GI50 [2] was 2220 nM. It also gave a TGI [2] of 5.9 µM, a GI50 [3] of 10.7 µM and a TGI [3] of 41.2 µM. The GI50 [4] was 3670 nM, the TGI [4] was 25.4 µM and the GI50 [5] was 6340 nM. For the same compound, the TGI [5] was 48.1 µM, the GI50 [6] was 5.22 µM and the TGI [6] was > 100 µM. The GI50 [7] was 5820 nM, the TGI [7] was > 100 µM and the GI50 [8] was 3750 nM. It also gave a TGI [8] of 20.2 µM, a GI50 [9] of 1730 nM and a TGI [9] of 3.72 µM. It also gave a GI50 [10] of 1920 nM and a TGI [10] of 5.19 µM.
For `C/C(=N\NC(=S)N1CCN(c2ccccn2)CC1)c1ncccn1`, the GI50 [1] was 414 nM, the TGI [1] was 11.9 µM and the GI50 [2] was 1710 nM. The TGI [2] was 18.5 µM, the GI50 [3] was 2.48 µM and the TGI [3] was 5.88 µM and 18.5 µM. For the same compound, the GI50 [4] was 117 nM, the TGI [4] was 5.91 µM and 13.2 µM and the GI50 [5] was 70.9 nM. For the same compound, the TGI [5] was 18.1 µM, the GI50 [6] was 0.566 µM and the TGI [6] was 7.1 µM and 14.1 µM. For the same compound, the GI50 [7] was 62.2 nM, the TGI [7] was 12.3 µM and the GI50 [8] was 791 nM. For the same compound, the TGI [8] was 1.47 µM and 14.6 µM, the GI50 [9] was 4480 nM and the TGI [9] was 20.3 µM. The TGI [10] was 6.19 µM and 16.2 µM.
With `COc1cc(C(=O)/C=C/c2c(C(F)(F)F)nc3ccccn23)cc(OC)c1OC` the GI50 [1] was 2260 nM, the TGI [1] was 8.76 µM and the GI50 [2] was 2090 nM. For the same compound, the TGI [2] was 4.33 µM, the GI50 [3] was 2.43 µM and the TGI [3] was 6.07 µM. The GI50 [4] was 4040 nM, the TGI [4] was > 100 µM and the GI50 [5] was 2090 nM. The TGI [5] was 6.49 µM, the GI50 [6] was 1.93 µM and the TGI [6] was 3.74 µM. For the same compound, the GI50 [7] was 1980 nM, the TGI [7] was > 100 µM and the GI50 [8] was 1640 nM. For the same compound, the TGI [8] was 3.52 µM, the GI50 [9] was 1760 nM and the TGI [9] was 3.44 µM. The GI50 [10] was 2400 nM and the TGI [10] was 5.77 µM.
`COc1ccc(-c2[nH]c3ccccc3c2/C=C(\C#N)S(=O)(=O)c2ccccc2)cc1` showed a GI50 [1] of 204 nM, a TGI [1] of 0.642 µM and a GI50 [2] of 3650 nM. For the same compound, the TGI [2] was > 100 µM, the GI50 [3] was 4.79 µM and the TGI [3] was > 21.8 µM. The GI50 [4] was 759 nM, the TGI [4] was > 35.5 µM and the GI50 [5] was 1340 nM. For the same compound, the TGI [5] was > 100 µM, the GI50 [6] was 1.48 µM and the TGI [6] was > 71.9 µM. It also gave a GI50 [7] of 344 nM, a TGI [7] of 4.9 µM and a GI50 [8] of 1130 nM. For the same compound, the TGI [8] was > 45.9 µM, the GI50 [9] was 375 nM and the TGI [9] was > 25.9 µM. For the same compound, the GI50 [10] was 1140 nM and the TGI [10] was > 28.6 µM.
With `Nc1nc(C(=O)O)c(N=Nc2ccccc2)c(=O)[nH]1` the TGI [1] was > 100 µM, the TGI [2] was > 100 µM and the TGI [3] was > 100 µM. For the same compound, the TGI [4] was > 100 µM, the TGI [5] was > 100 µM and the TGI [6] was > 100 µM. The TGI [7] was > 100 µM, the TGI [8] was > 100 µM and the TGI [9] was > 100 µM. The TGI [10] was > 100 µM.
With `Cc1cc(O)c2c3c(ccc2c1)C(=O)c1c(O)cccc1C3=O` the TGI [1] was 0.341 µM, the TGI [2] was > 100 µM and the TGI [3] was > 100 µM. The TGI [4] was > 100 µM, the TGI [5] was > 100 µM and the TGI [6] was > 100 µM. The TGI [7] was 26.5 µM, the TGI [8] was > 45 µM and the TGI [9] was > 74.7 µM. For the same compound, the TGI [10] was > 100 µM.
`CC(=O)N(O)c1ccc(/C=C/c2ccccc2)cc1` was tested, and the GI50 [1] was 3390 nM, the TGI [1] was > 100 µM and the GI50 [2] was 1900 nM. For the same compound, the TGI [2] was 5.86 µM, the GI50 [3] was 5.71 µM and the TGI [3] was 37.9 µM. It also gave a GI50 [4] of 1260 nM, a TGI [4] of 15.5 µM and a GI50 [5] of 763 nM. The TGI [5] was 37.5 µM, the GI50 [6] was 9.39 µM and the TGI [6] was > 100 µM. The GI50 [7] was 244 nM, the TGI [7] was > 100 µM and the GI50 [8] was 817 nM. The TGI [8] was 9.69 µM, the GI50 [9] was 883 nM and the TGI [9] was 4.59 µM. The GI50 [10] was 221 nM and the TGI [10] was 0.715 µM.
`c1ccc(CN2COc3c(ccc4c5c(ccc34)CN(Cc3ccccc3)CO5)C2)cc1` was tested, and the TGI [1] was > 100 µM, the TGI [2] was > 100 µM and the TGI [3] was > 100 µM. The TGI [4] was > 100 µM, the TGI [5] was > 100 µM and the TGI [6] was > 100 µM. For the same compound, the TGI [7] was > 100 µM, the TGI [8] was > 100 µM and the TGI [9] was > 100 µM. The TGI [10] was > 100 µM.
Compound `COc1c(CC=C(C)C)c(O)c(C(CC(C)C)c2c(O)c(CC=C(C)C)c(O)c(C(C)=O)c2O)c(O)c1C(C)=O` (centres undefined) has a TGI [1] of 6.47 µM, a TGI [2] of 14.6 µM and a TGI [3] of 1.94 µM. It also gave a TGI [4] of 12.1 µM, a TGI [5] of 6.84 µM and a TGI [6] of 5.21 µM. The TGI [7] was 3.8 µM, the TGI [8] was 8.12 µM and the TGI [9] was 8.32 µM. It also gave a TGI [10] of 1.24 µM.
`COCCOCCOCCOCCOC(=O)OC[n+]1ccc(NC(=NCCCCCCOc2ccc(Cl)cc2)NC#N)cc1` was tested, and the GI50 [1] was < 10 nM, the TGI [1] was 14.7 µM and the GI50 [2] was 13200 nM. It also gave a TGI [2] of 26.4 µM, a GI50 [3] of 11.4 µM and a TGI [3] of 27.3 µM. The GI50 [4] was 2220 nM, the TGI [4] was 19.2 µM and the GI50 [5] was < 10 nM. The TGI [5] was 15.7 µM, the GI50 [6] was 11.1 µM and the TGI [6] was 23.5 µM. The GI50 [7] was 90.5 nM, the TGI [7] was > 45.6 µM and the GI50 [8] was 11900 nM. It also gave a TGI [8] of 26.9 µM, a GI50 [9] of 14100 nM and a TGI [9] of 27.9 µM. For the same compound, the GI50 [10] was 1280 nM and the TGI [10] was 15.4 µM.
